From US20220227720A1, “DHODH INHIBITORS AND THEIR USE AS ANTIVIRAL AGENTS” (priority 2019, published 2022)
Converted amounts (≈) assume the structure as drawn. Like-named read-outs stand apart in the source and are kept apart here.

Experiments:
TOSV = test: microbe, parasite or virus in culture; type: cell-based, Toscana virus; settings: Toscana virus, Vero C1008, read-out: IC50 (TOSV)
[1] = Cytotoxicity assay (CellTiter-Blue), Vero E6 cells; settings: for CC50: cell line not given; for CC50 at 4 days: monkey (simian), Vero E6 cells, CC50, Simian Vero E6 cells, value repeated under each virus
Vero E6 cells = test: Cytotoxicity assay (CellTiter-Blue), Vero E6 cells; settings: Simian Vero E6 cells; value repeated under each virus
[2] = Cytotoxicity assay, L929 cells; settings: mouse
TAHV = test: microbe, parasite or virus in culture; type: cell-based; settings: Tahyna virus, Vero C1008, read-out: IC50 TAHV
VEEV [3] = test: microbe, parasite or virus in culture; type: cell-based; settings: Venezuelan equine encephalitis virus, L929, in Mus musculus, read-out: IC50 VEEV
HAZV = test: microbe, parasite or virus in culture; type: cell-based; settings: Hazara virus, Vero C1008, read-out: IC50 HAZV
YFV [4] = test: microbe, parasite or virus in culture; type: cell-based; settings: Yellow fever virus, Vero C1008, read-out: IC50 YFV
RVFV [5] = test: microbe, parasite or virus in culture; type: cell-based; settings: Rift Valley fever virus, HEK293, read-out: IC50 RVFV
VEEV [6] = test: microbe, parasite or virus in culture; type: cell-based; settings: Venezuelan equine encephalitis virus, HEK293, read-out: IC50 VEEV
TBEV [7] = test: microbe, parasite or virus in culture; type: cell-based; settings: Tick-borne encephalitis virus, SW13, read-out: IC50 TBEV
RVFV [8] = test: microbe, parasite or virus in culture; type: cell-based; settings: Rift Valley fever virus, Vero C1008, read-out: IC50 RVFV
RVFV [9] = test: microbe, parasite or virus in culture; type: cell-based; settings: Rift Valley fever virus, SW13, read-out: IC50 RVFV
VEEV [10] = test: microbe, parasite or virus in culture; type: cell-based; settings: Venezuelan equine encephalitis virus, SW13, read-out: IC50 VEEV
DENV = test: Virus yield reduction assay, DENV in Vero E6 cells; type: cell-based; settings: Dengue virus, Vero C1008; Simian Vero E6 cells; FLAVI virus family
[11] = Cytotoxicity assay (CellTiter-Blue), HEK-293 cells; settings: human
VEEV [12] = test: microbe, parasite or virus in culture; type: cell-based; settings: Venezuelan equine encephalitis virus, Vero C1008, read-out: IC50 VEEV
RVFV [13] = test: microbe, parasite or virus in culture; type: cell-based; settings: Rift Valley fever virus, L929, in Mus musculus, read-out: IC50 RVFV
Plasma stability = settings: 1 μm, 37° C., mouse plasma diluted with 1 volume of PBS pH 7.4
TBEV [14] = test: microbe, parasite or virus in culture; type: cell-based; settings: Tick-borne encephalitis virus, Vero C1008, read-out: IC50 TBEV
[15] = Cytotoxicity assay, BHK-21 cells; settings: hamster, BHK-21 cells, CC50, Hamster BHK-21 cells; value repeated under each virus
RVFV [16] = test: microbe, parasite or virus in culture; type: cell-based; settings: Rift Valley fever virus, BHK-21, in Mesocricetus auratus, read-out: IC50 RVFV
TBEV [17] = test: microbe, parasite or virus in culture; type: cell-based; settings: Tick-borne encephalitis virus, L929, in Mus musculus, read-out: IC50 TBEV
[18] = Log D (PBS pH 7.4/octanol)
[19] = Cytotoxicity assay, SW13 cells; settings: human
VEEV [20] = test: microbe, parasite or virus in culture; type: cell-based; settings: Venezuelan equine encephalitis virus, BHK-21, in Mesocricetus auratus, read-out: IC50 VEEV
Plasma protein binding = settings: mouse, plasma diluted with 1 volume of PBS pH 7.4, pH 7.4
Solubility in PBS pH 7.4 = settings: PBS pH 7.4, 20 °C, pH 7.4, aqueous buffer
[21] = Metabolic stability in S9 fraction
ZIKV = test: Virus yield reduction assay, ZIKV in Vero E6 cells; type: cell-based; settings: Zika virus, Vero C1008; Simian Vero E6 cells; FLAVI virus family
TBEV [22] = test: microbe, parasite or virus in culture; type: cell-based; settings: Tick-borne encephalitis virus, HEK293, read-out: IC50 TBEV
[23] = Hepatic microsome stability; settings: 1 μm, 37° C., 0.5 mg/mL microsomes of mouse liver; cofactor: NADPH
YFV [24] = test: microbe, parasite or virus in culture; type: cell-based; settings: Yellow fever virus, BHK-21, in Mesocricetus auratus, read-out: IC50 YFV

SMILES | IC50 (TOSV) [nM] | CC50 [1] [nM] | CC50 at 4 days [1] [nM] | CC50 [2] [nM] | IC50 (TAHV) [nM] | IC50 (VEEV [3]) [nM] | IC50 (HAZV) [nM] | IC50 (YFV [4]) [nM] | IC50 (RVFV [5]) [nM] | IC50 (TBEV [7]) [nM] | IC50 (RVFV [8]) [nM] | IC50 (RVFV [9]) [nM] | IC50 (VEEV [10]) [nM] | IC50 (DENV) [nM] | IC50 (VEEV [12]) [nM] | IC50 (TBEV [14]) [nM] | CC50 [15] [nM] | IC50 (RVFV [16]) [nM] | IC50 (TBEV [17]) [nM] | CC50 [19] [nM] | other results
CCc1nc2cc(-c3ccc(-c4ccccc4)cc3)cc(C(=O)O)c2[nH]1 [Example 19] | 118 | 8000 | – | – | – | – | – | – | – | – | – | – | – | – | – | – | – | – | – | – | –
O=C(O)c1ccccc1Nc1ccc(Cc2ccccc2)cc1 [Example 5] | 325 | – | 44000 | 60000 | 450 | > 1000 | 360 | – | – | – | – | – | – | – | – | – | – | – | – | – | CC50 (Vero E6 cells): 77500 nM
CC(C)c1ccccc1SCC(=O)Nc1ccccc1C(=O)O [Example 2] | 550 ± 50 | – | 110000 ± 10000 | – | 270 | – | 700 ± 200 | 700 ± 200 | 400 | 930 | ~2000 | 500 | 1500 | – | – | – | – | – | – | – | IC50 (VEEV [6]): 450 nM
CCC(C)c1ccccc1OCCCc1nc2ccc(F)cc2c(=O)o1 (centres unmarked) [Example 22] | 300 | 17000 | – | – | – | – | – | – | – | – | – | – | – | – | – | – | – | – | – | – | –
Cc1ccc(NC(=O)COc2ccccc2Cc2ccccc2)c(C(=O)O)c1 [Example 1] | 90 | – | 60000 ± 15000 | 60000 | 170 | – | 50 | 200 | 40 ± 20 | 670 | 90 | 280 | 100 | 190 | 70 | 220 | 140000 | 700 ± 30 | 80 | 60000 | CC50 at 3 days [11]: 80000 nM; IC50 (RVFV [13]): 40 nM; Plasma stability [% remaining at 2 h] (Plasma stability): 75 ± 0 % remaining at 2 h; logD [18]: 2.62 ± 0.03; IC50 (VEEV [20]): 360 nM; fraction unbound at 1 μM (Plasma protein binding): 0.01; solubility (Solubility in PBS pH 7.4): 167 ± 7 µM (≈ 62.7 µg/mL)
COc1ccc(Nc2ccc(Oc3ccccc3)cc2)c(C(=O)O)c1 [Example 4] | 80 | – | 71000 ± 1000 | 70000 | 100 | 220 | 120 | 220 | – | 380 | 20 | 130 | 220 | 180 | 60 | 120 | 125000 | 850 | 160 | 75000 | CC50 (Vero E6 cells): 37900 nM; CC50 at 3 days [11]: 125000 nM; IC50 (VEEV [20]): 1300 nM
CCC(C)c1ccccc1OCCOC(=O)Nc1ccccc1C(=O)O (centres unmarked) [Example 12] | 190 | 51000 | – | – | – | – | – | – | – | – | – | – | – | – | – | – | – | – | – | – | Metabolic stability in a S9 fraction (rat) [21]: high metabolic stability
CCCCCc1ccc(C#Cc2ccc(NC(=O)CC)c(C(=O)O)c2)cc1 [Example 8, 5-((4-pentylphenyl)ethynyl)-2-propionamidobenzoic acid] | 10 | – | 8000 | 5000 | 10 | 3 | 8 | 6 | 1.5 | 13 | 6 | 8 | 13 | 5 | 7 | 70 | 7500 | 16 | 1.5 | 20000 | IC50 (ZIKV): 9 nM; IC50 (TBEV [22]): 3.1 nM; IC50 (RVFV [13]): 2 nM; Hepatic microsome stability [% remaining at 1 h] [23]: 70 ± 3 % remaining at 1 h; Plasma stability [% remaining at 2 h] (Plasma stability): 114 ± 5 % remaining at 2 h; IC50 (VEEV [6]): 1.5 nM; IC50 (YFV [24]): 22 nM; logD [18]: 4.6 ± 0.3; solubility (Solubility in PBS pH 7.4): 18 ± 6 µM (≈ 6.54 µg/mL)
O=C(O)c1ccccc1NC(=O)n1ccc2ccccc21 [Example 14] | 9000 | 40000 | – | – | – | – | – | – | – | – | – | – | – | – | – | – | – | – | – | – | –
